Test results: US10898535B2, “Composition for inhibiting and preventing myopathy, containing bean leaf extract as active ingredient” (AMOREPACIFIC CORPORATION, priority 2015, dated 2021)

Columns and labels:
[1] = system: Atrogin1 gene (mRNA); assay: Inhibition of expression of Atrogin1 gene (mRNA) in dexamethasone-induced muscle loss model (PCR); type: cell-based, mouse; details: differentiated C2C12, dexamethasone 1 μM, dexibuprofen 100 μM, 6 hours, control group = dexamethasone only
Procedure: (§1) In the present Experimental Example 2, experiments were conducted to evaluate the inhibitory efficacy of the bean leaf extract against the overexpression of Atrogin1 and Murf1 mRNA in the muscle loss induced model by dexamethasone. The experimental group, the control group and the comparison group of Experimental Example 2 were prepared in the same manner as Experimental Example 1. Provided that, when 6 hours had elapsed since the treatment with each final material, RNA was extracted with trizol reagent (TRIzol agent, Invitrogen) after washing twice with cold saline, […] Expression patterns of each gene were measured using primers and probes (Applied biosystems) previously designed for genes of the synthesized cDNA and Atrogin1, Murf1, and GAPD. At this time, polymerase chain reaction (PCR) and analysis were performed using a Rotor-Gene 3000 system (Corbett Research, Sydney, Australia). To increase the reliability, each sample was repeatedly measured three times to derive the average value.

[2] = system: Murf1 gene (mRNA); assay: Inhibition of expression of Murf1 gene (mRNA) in dexamethasone-induced muscle loss model (PCR); type: cell-based, mouse; details: differentiated C2C12, dexamethasone 1 μM, dexibuprofen 100 μM, 6 hours, control group = dexamethasone only
Procedure: as §1

[3] = system: C2C12 (mouse myoblast); assay: Ability to recover cell activity of myocyte in dexamethasone-induced muscle loss model (CCK8, absorbance 450 nm); type: cell-based; details: differentiated C2C12, dexamethasone 1 μM, dexibuprofen 100 μM, 24 hours, control group = dexamethasone only
Procedure: In the present Experimental Example 1, the experiments were conducted to evaluate the recovery efficacy of the bean leaf extract on the decrease in cell activity of myocyte in a model of muscle loss induced by Dexamethasone. Dexamethasone is a kind of glucocorticoid, and increases expression of the Atrogin1 and Murf1 in vitro and in vivo to accelerate proteolytic degradation, thereby resulting in decrease in skeletal muscle, induction of myocyte death, and reduction of cell activity. Accordingly, an experimental model of dexamethasone to myocyte is a useful model for evaluating the function of sarcopenia and is widely used. The C2C12 (mouse myoblast) used in Experimental Example 1 was purchased from American Type Culture Collection (Manassas, Va., USA) and the cells were cultured in DMEM containing 10% FBS, 100 units/mL Penicillin, and […] streptomycin. Specific experimental methods are as follows. […] After 24 hours of treatment with the material, the medium was replaced with medium containing 10% solution of CCK8 […], and allowed to react for 10 minutes, and the cell activity was measured by measuring the absorbance at 450 nm. To increase the reliability, each sample was repeatedly measured three times to derive the average value.

Which “Change in Atrogin1 gene expression relative to control group (%)” value [1] does the source give for `CC(C)Cc1ccc([C@H](C)C(=O)O)cc1` [Dexibuprofen, dexibuprofen] here?
The value was −2.6%.

And the “Change in Atrogin1 gene expression relative to control group (%)” value ([1]; listed as dexibuprofen)?
Its value is “insignificant”.

What about the “Change in Murf1 gene expression relative to control group (%)” value [2] of the same compound?
Its value is −3.3%.

And the “Change in Murf1 gene expression relative to control group (%)” value ([2]; listed as dexibuprofen)?
The value was “insignificant”.

What about the “Change in cell activity relative to control group (%)” value [3] of the same compound?
Its value is −4.1%.

And the “Change in cell activity relative to control group (%)” value ([3]; listed as dexibuprofen)?
Its value is “no recovery of myocyte activity is observed”.
